# Data published in patent US20060100275A1, “Agent for treating interstitial cystitis” (KISSEI PHARMACEUTICAL CO., LTD., priority 2004, published 2006).
# System: capsaicin-sensitive sensory nerve
# Test: Capsaicin-induced Evans Blue pigment leakage into mouse bladder (capsaicin-sensitive sensory nerve inhibition)
# Type: in vivo
# Settings: for inhibition of capsaicin-sensitive sensory nerve (summary): female Balb/c mouse bladder, capsaicin stimulation
# Procedure: A female Balb/c mouse (Japan SLC) which had been anesthetized by intraperitoneally administering 0.15 ml of 20% urethane was subjected to tracheal cannulation, using a polyethylene tube PE 50. A polyethylene tube PE 10 was inserted into the bladder via a urethra, and hydrochloride of ethyl (−)-2-[4-[2-[[(1S,2R)-2-hydroxy-2-(4-hydroxyphenyl)-1-methy lethyl]amino]ethyl]-2,5-dimethylphenoxy]acetate (to be referred to as “compound 1” hereinafter), which had been dissolved in physiological saline and 2 equivalents of sodium hydroxide to a concentration of 10 μM and further diluted to various concentrations with physiological saline, was injected through the tube. After 1 hour from the injection, a solution (10 ml/kg) of Evans Blue (30 mg/kg) and capsaicin (0.3 mg/kg) dissolved in physiological saline containing 0.1% DMSO and 0.1% Tween 80 was administered through caudal vein. Precisely 5 minutes after the administration, the animal was sacrificed by cervical vertebrae dislocation to extract the bladder. After removing urine and blood from the extracted bladder, wet weight of the bladder was measured, and the extracted bladder was put into each well of a 96 well microplate into which formamide had been dispensed in 150 μl portions in advance. After soaking the bladder overnight in formamide, the pigment in the bladder tissue was determined by measuring absorbance of 100 μl of the supernatant at a wavelength of 620 nm. In addition, the amount of the Evans Blue pigment per 1 mg bladder wet weight was calculated. In this connection, a mouse in which physiological saline was injected into the bladder and the Evans Blue solution containing no capsaicin was administered thereto was used as the normal control.
# The results are shown in FIG. 1 by average value ± standard deviation. Inter-group significant difference between normal control group and capsaicin stimulation group was examined by student's t-test. Inter-group significant difference between compound 1 administration group and un-administration group was examined by a one dimensional analysis of variation and subsequent Dunnett's inter-multigroup comparison. A value of p<0.05 was regarded as significant.
# The pigment in the bladder tissue was determined in the same manner as in Test Example 1, except that Tolterodine was used instead of the compound 1 and Hartman's solution was used instead of the physiological saline and 2 equivalents of sodium hydroxide. In this connection, a mouse in which Hartman's solution was injected into the bladder and the Evans Blue solution containing no capsaicin was administered thereto was used as the normal control.
# [1] = female Balb/c mouse, injected into the bladder 1 hour before i.v. Evans Blue 30 mg/kg + capsaicin 0.3 mg/kg, various concentrations, vs solvent group
Structure (SMILES),inhibition of capsaicin-sensitive sensory nerve (summary),amount of Evans Blue pigment in bladder tissue [1],"amount of Evans Blue pigment in bladder tissue (1 μM administration group, injected into the bladder, p<0.01 vs solvent group)"
"Cc1ccc(O)c([C@H](CCN(C(C)C)C(C)C)c2ccccc2)c1 [Tolterodine, reference compound]",did not inhibit the capsaicin-sensitive sensory nerve,Significant difference in the amount of Evans Blue pigment was not found,
"CCOC(=O)COc1cc(C)c(CCN[C@@H](C)[C@H](O)c2ccc(O)cc2)cc1C [compound 1, ethyl (−)-2-[4-[2-[[(1S,2R)-2-hydroxy-2-(4-hydroxyphenyl)-1-methylethyl]amino]ethyl]-2,5-dimethylphenoxy]acetate]",markedly inhibited the capsaicin-sensitive sensory nerve,concentration-dependently reduced the amount of Evans Blue pigment,significantly reduced
